This note sets out measurements from US8354441B2, “Oxazoline derivatives” (Hoffmann-La Roche Inc., priority 2009, dated 2013).

One experiment deals with T1, rat TAAR1 (Rattus norvegicus, UniProt Q923Y9).
T1 construct: expressed in transfected cells; host or cells: HEK293 (ATCC # CRL-1573), stably transfected with pIRESneo2 expression plasmid
The experiment can be described thus: TAAR1 radioligand binding with [3H]-rac-2-(1,2,3,4-tetrahydro-1-naphthyl)-2-imidazoline, membranes of stably transfected HEK293 cells. To be noted: second value of the cell, read-out: Ki (μM) mouse/rat: rat. As for the experimental part: (§1) For the construction of expression plasmids the coding sequences of human, rat and mouse TAAR 1 were amplified from genomic DNA essentially as described by Lindemann et al.. The Expand High Fidelity PCR System (Roche Diagnostics) was used with 1.5 mM Mg^2+ and purified PCR products were cloned into pCR2.1-TOPO cloning vector (Invitrogen) following the instructions of the manufacturer. PCR products were subcloned into the pIRESneo2 vector (BD Clontech, Palo Alto, Calif.), and expression vectors were sequence verified before introduction in cell lines.
(§2) HEK293 cells (ATCC # CRL-1573) were cultured essentially as described by Lindemann et al. (2005). For the generation of stably transfected cell lines HEK293 cells were transfected with the pIRESneo2 expression plasmids containing the TAAR coding sequences (described above) with Lipofectamine 2000 (Invitrogen) according to the instructions of the manufacturer, and 24 hrs post transfection the culture medium was supplemented with 1 mg/ml G418 (Sigma, Buchs, Switzerland). After a culture period of about 10 d clones were isolated, expanded and tested for responsiveness to trace amines (all compounds purchased from Sigma) with the cAMP Biotrak Enzyme immunoassay (EIA) System (Amersham) following the non-acetylation EIA procedure provided by the manufacturer.
(§3) Cells at confluence were rinsed with ice-cold phosphate buffered saline without Ca^2+ and Mg^2+ containing 10 mM EDTA and pelleted by centrifugation at 1000 rpm for 5 min at 4° C. The pellet was then washed twice with ice-cold phosphate buffered saline and the cell pellet was frozen immediately by immersion in liquid nitrogen and stored until use at −80° C. The cell pellet was then suspended in 20 ml HEPES-NaOH (20 mM), pH 7.4 containing 10 mM EDTA, and homogenized with a Polytron (PT 3000, Kinematica) at 10,000 rpm for 10 s. The homogenate was centrifuged at 48,000×g for 30 min at 4° C. and the pellet resuspended in 20 ml HEPES-NaOH (20 mM), pH 7.4 containing 0.1 mM EDTA (buffer A), and homogenized with a Polytron at 10,000 rpm for 10 s. The homogenate was then centrifuged at 48,000×g for 30 min at 4° C. and the pellet resuspended in 20 ml buffer A, and homogenized with a Polytron at 10,000 rpm for 10 s. Protein concentration was determined by the method of Pierce (Rockford, Ill.). The homogenate was then centrifuged at 48,000×g for 10 min at 4° C., resuspended in HEPES-NaOH (20 mM), pH 7.0 including MgCl2 (10 mM) and […] homogenized with a Polytron at 10,000 rpm for 10 s.
(§4) The binding assay was performed at 4° C. in a final volume of 1 ml, and with an incubation time of 30 min. The radioligand [^3H]-rac-2-(1,2,3,4-tetrahydro-1-naphthyl)-2-imidazoline was used at a concentration equal to the calculated Kd value of 60 nM to give a bound at around 0.1% of the total added radioligand concentration, and a specific binding which represented approximately 70-80% of the total binding. Non-specific binding was defined as the amount of [^3H]-rac-2-(1,2,3,4-tetrahydro-1-naphthyl)-2-imidazoline bound in the presence of the appropriate unlabelled ligand (10 μM). Competing ligands were tested in a wide range of concentrations (10 pM-30 μM). […] Each experiment was performed in duplicate. All incubations were terminated by rapid filtration through UniFilter-96 plates (Packard Instrument Company) and glass filter GF/C, pre-soaked for at least 2 h in polyethylenimine 0.3%, and using a Filtermate 96 Cell Harvester (Packard Instrument Company). The tubes and filters were then washed 3 times with 1 ml aliquots of cold buffer B. Filters were not dried and soaked in Ultima gold (45 μl/well, Packard Instrument Company) and bound radioactivity was counted by a TopCount Microplate Scintillation Counter (Packard Instrument Company).

The next experiment addresses T2, mouse TAAR1 (Mus musculus, UniProt Q923Y8).
T2 construct: expressed in transfected cells; host or cells: HEK293 (ATCC # CRL-1573), stably transfected with pIRESneo2 expression plasmid
The description is as above. Particulars: first value of the cell, read-out: Ki (μM) mouse/rat: mouse. As for the experimental part: as §1, §2, §3, §4

T1 sequence (Q923Y9 whole entry): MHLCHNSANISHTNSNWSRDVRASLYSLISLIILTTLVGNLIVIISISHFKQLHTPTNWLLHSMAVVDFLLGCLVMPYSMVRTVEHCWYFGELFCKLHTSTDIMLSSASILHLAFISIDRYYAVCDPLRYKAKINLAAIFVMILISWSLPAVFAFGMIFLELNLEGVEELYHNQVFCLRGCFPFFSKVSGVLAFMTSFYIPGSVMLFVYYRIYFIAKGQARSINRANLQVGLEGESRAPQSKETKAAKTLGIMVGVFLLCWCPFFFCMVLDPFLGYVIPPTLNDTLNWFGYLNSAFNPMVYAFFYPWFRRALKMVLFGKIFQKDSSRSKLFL
T2 sequence (Q923Y8 whole entry): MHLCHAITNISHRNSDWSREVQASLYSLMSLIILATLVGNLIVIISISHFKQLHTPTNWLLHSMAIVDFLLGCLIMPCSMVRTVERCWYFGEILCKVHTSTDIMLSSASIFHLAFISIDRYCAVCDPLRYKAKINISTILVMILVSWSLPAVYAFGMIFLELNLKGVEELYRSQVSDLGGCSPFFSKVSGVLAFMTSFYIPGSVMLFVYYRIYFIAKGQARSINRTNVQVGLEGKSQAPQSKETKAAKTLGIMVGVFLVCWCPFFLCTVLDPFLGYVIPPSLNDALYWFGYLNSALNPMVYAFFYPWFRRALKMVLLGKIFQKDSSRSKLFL

Turning to `C[C@H]1OC(N)=N[C@H]1CCc1ccc(NC(=O)c2ccc(Cl)cc2)cc1` [Example 206, N-(4-(2-((4S,5R)-2-Amino-5-methyl-4,5-dihydrooxazol-4-yl)ethyl)phenyl)-4-chlorobenzamide], the Ki was 0.0013 µM on rat TAAR1 and 0.0076 µM on mouse TAAR1.

Take `NC1=N[C@@H](CCc2ccc(NC(=O)Nc3ccc(C(F)(F)F)cc3)cc2)CO1` [Example 15, 1-{4-[2-((S)-2-Amino-4,5-dihydro-oxazol-4-yl)-ethyl]-phenyl}-3-(4-trifluoromethyl-phenyl)-urea]: the Ki at rat TAAR1 and at mouse TAAR1 was 0.0001 µM in each case.

For the molecule `Cc1nc(C(=O)Nc2ccc(CC[C@H]3COC(N)=N3)cc2)c(C(F)(F)F)o1` [Example 216, (S)-N-(4-(2-(2-Amino-4,5-dihydrooxazol-4-yl)ethyl)phenyl)-2-methyl-5-(trifluoromethyl)oxazole-4-carboxamide], the Ki was 0.0061 µM on rat TAAR1 and 0.0027 µM on mouse TAAR1.

Take `NC1=N[C@@H](CCc2ccc(N3CCN(c4ccc(F)cc4)C3=O)cc2)CO1` [Example 56, 1-{4-[2-((S)-2-Amino-4,5-dihydro-oxazol-4-yl)-ethyl]-phenyl}-3-(4-fluoro-phenyl)-imidazolidin-2-one]: the results for the Ki at rat TAAR1 and at mouse TAAR1 were 0.0009 µM and 0.0094 µM, respectively.

Regarding `CCc1cnc(C(=O)Nc2ccc(CC[C@@H]3N=C(N)O[C@H]3C)cc2)cn1` [Example 227, 5-Ethyl-pyrazine-2-carboxylic acid {4-[2-((4S,5S)-2-amino-5-methyl-4,5-dihydro-oxazol-4-yl)-ethyl]-phenyl}-amide], the values for the Ki on rat TAAR1 and on mouse TAAR1 were 0.0059 µM and 0.007 µM, respectively.

`NC1=N[C@@H](CCc2ccc(NC(=O)Cc3ccc(F)cc3)cc2)CO1` [Example 69, N-{4-[2-((S)-2-Amino-4,5-dihydro-oxazol-4-yl)-ethyl]-phenyl}-2-(4-fluoro-phenyl)-acetamide]: the Ki at rat TAAR1 worked out at 0.0009 µM; on mouse TAAR1 it was 0.003 µM.

Regarding `C[C@@H]1OC(N)=N[C@H]1CCc1ccc(NC(=O)c2ccc(C(F)(F)F)cn2)cc1` [Example 226, 5-Trifluoromethyl-pyridine-2-carboxylic acid {4-[2-((4S,5S)-2-amino-5-methyl-4,5-dihydro-oxazol-4-yl)-ethyl]-phenyl}-amide], the figures for the Ki at rat TAAR1 and on mouse TAAR1 were 0.0021 µM and 0.0011 µM, respectively.

With `NC1=N[C@@H](CCc2ccc(NC(=O)Nc3ccc(Cl)c(Cl)c3)cc2)CO1` [Example 14, 1-{4-[2-((S)-2-Amino-4,5-dihydro-oxazol-4-yl)-ethyl]-phenyl}-3-(3,4-dichloro-phenyl)-urea], the Ki on rat TAAR1 and at mouse TAAR1 was 0.0001 µM throughout.

`Cc1ccc(C(=O)Nc2ccc(CC[C@H]3COC(N)=N3)cc2)s1` [Example 201, (S)-N-(4-(2-(2-Amino-4,5-dihydrooxazol-4-yl)ethyl)phenyl)-5-methylthiophene-2-carboxamide]: the Ki on rat TAAR1 was 0.0007 µM; on mouse TAAR1, 0.0005 µM.

Turning to `NC1=N[C@@H](CCc2ccc(NC(=O)c3cnc(C(F)(F)F)nc3C3CC3)cc2)CO1` [Example 209, (S)-N-(4-(2-(2-Amino-4,5-dihydrooxazol-4-yl)ethyl)phenyl)-4-cyclopropyl-2-(trifluoromethyl)pyrimidine-5-carboxamide], the Ki on rat TAAR1 turned out to be 0.0035 µM; at mouse TAAR1, 0.0013 µM.

For the molecule `NC1=N[C@@H](CCc2ccc(NC(=O)Nc3ncc(Cl)cn3)cc2)CO1` [Example 151, 1-{4-[2-((S)-2-Amino-4,5-dihydro-oxazol-4-yl)-ethyl]-phenyl}-3-(5-chloro-pyrimidin-2-yl)-urea], the Ki at rat TAAR1 stood at 0.0028 µM; at mouse TAAR1, 0.0071 µM.

In the case of `NC1=N[C@@H](CCc2ccc(NC(=O)c3cncc(Cl)c3)cc2)CO1` [Example 124, (S)-N-(4-(2-(2-Amino-4,5-dihydrooxazol-4-yl)ethyl)phenyl)-5-chloronicotinamide], the Ki at rat TAAR1 stood at 0.0061 µM; at mouse TAAR1 it was 0.004 µM.
